Results as given in patent US20130261045A1, “GREEN TEA POLYPHENOL ALPHA SECRETASE ENHANCERS AND METHODS OF USE” (UNIVERSITY OF SOUTH FLORIDA, priority 2005, published 2013).

Columns and labels:
[1] = system: α-secretase; assay: α-secretase cleavage activity kit, lysates of APP-transfected N2a cells; format: cell-based, murine; conditions: first 1 to 3 hours after EGCG
[2] = system: Aβ1-40 and Aβ1-42; assay: Aβ1-40/Aβ1-42 ELISA, Tg2576 mouse-derived primary neuronal cells; format: cell-based; conditions: Tg2576 primary neurons; various doses, 8 h
[3] = system: ADAM10; assay: Western blot of ADAM10 maturation in SweAPP N2a cells; format: cell-based, murine
Procedure: Cultured cells were lysed in ice-cold lysis buffer described above, and an aliquot corresponding to 50 μg of total protein was electrophoretically separated using 16.5% Tris-tricine gels. Electrophoresed proteins were then transferred to PVDF membranes (Bio-Rad, Richmond, Calif.), washed in ddH2O, and blocked for 1 h at ambient temperature in Tris-buffered saline (TBS; Bio-Rad) containing 5% (w/v) non-fat dry milk. After blocking, membranes were hybridized for 1 h at ambient temperature with various primary antibodies. Membranes were then washed 3 times for 5 min each in ddH2O and incubated for 1 h at ambient temperature with the appropriate HRP-conjugated secondary antibody (1:1,000, Pierce Biotechnology, Inc. Rockford, Ill.). All antibodies were diluted in TBS containing 5% (w/v) of non-fat dry milk. Blots were developed using the luminol reagent (Pierce Biotechnology). Densitometric analysis was done using the Fluor-S MultiImager™ with Quantity One™ software (Bio-Rad). For examining sAPP-α, conditioned medium was collected following treatment according to a modified protocol from Chen and Fernandez (Chen et al., 2004). sAPP-α was extracted using 3K Nanosep centrifugal filters (Pall Life Sciences, Ann Arbor, Mich.) and protein concentrate was prepared for the aforementioned electrophoresis. […]

[4] = system: ADAM10; assay: Western blot of ADAM10 maturation in parental (non-transfected) N2a cells; format: cell-based, murine; conditions: various doses, 8 h
Procedure: Cultured cells were lysed in ice-cold lysis buffer described above, and an aliquot corresponding to 50 μg of total protein was electrophoretically separated using 16.5% Tris-tricine gels. Electrophoresed proteins were then transferred to PVDF membranes (Bio-Rad, Richmond, Calif.), washed in ddH2O, and blocked for 1 h at ambient temperature in Tris-buffered saline (TBS; Bio-Rad) containing 5% (w/v) non-fat dry milk. After blocking, membranes were hybridized for 1 h at ambient temperature with various primary antibodies. Membranes were then washed 3 times for 5 min each in ddH2O and incubated for 1 h at ambient temperature with the appropriate HRP-conjugated secondary antibody (1:1,000, Pierce Biotechnology, Inc. Rockford, Ill.). All antibodies were diluted in TBS containing 5% (w/v) of non-fat dry milk. Blots were developed using the luminol reagent (Pierce Biotechnology). Densitometric analysis was done using the Fluor-S MultiImager™ with Quantity One™ software (Bio-Rad). […] Antibodies used for Western blot included: antibody 369 (which recognizes the carboxyl-terminus of APP; 1:1,500), clone 22C11 (against the amino-terminus of APP; 1:1,500), clone 6E10 (against amino acids 1-17 of Aβ; 1:1,500), anti-ADAM9 (1:500), and antibodies against ADAM10 (1:500), ADAM17 (1:500) or actin (1:1,500; as an internal reference control).

[5] = system: Aβ generation; assay: Aβ ELISA, conditioned media of APP-transfected N2a cells (Example 1); format: cell-based, murine
Procedure: Aβ1-40 and 1-42 peptides were analyzed in the conditioned media from SweAPP N2a cells (FIGS. 1A, 1C, 1D) and transgenic APPsw mouse-derived primary neuronal cells (FIG. 1B) by ELISA (n=3 for each condition).
TAPI-1, β and γ-secretase inhibitors were obtained from Calbiochem (San Diego, Calif.). Green tea extract (75% polyphenols) was obtained from the Vitamin Shoppe™ (North Bergen, N.J.).
Cultured cells were lysed in ice-cold-lysis buffer (20 mM Tris, pH 7.5, 150 mM NaCl, 1 mM EDTA, 1 mM EGTA, 1% v/v Triton X-100, 2.5 mM sodium pyropgosphate, 1 mM β-glycerolphosphate, 1 mM Na3VO4, 1 μg/mL leupeptin, 1 mM PMSF) as previously described (Tan et al., 2002). Mouse brains were isolated under sterile conditions on ice and placed in ice-cold lysis buffer. Brains were then sonicated on ice for approximately 3 min, allowed to stand for 15 min at 4° C., and centrifuged at 15,000 rpm for 15 min. Total Aβ1-42 species were detected by acid extraction of brain homogenates in 5 M guanidine buffer (ret), followed by a 1:10 dilution in lysis buffer. Soluble Aβ1-42 was directly detected in cultured cell lysates or brain homogenates prepared with lysis buffer described above by a 1:4 or 1:10 dilution, respectively. Aβ1-42 was quantified in these samples using the Aβ1-42 ELISA kit (BioSource, Camarillo, Calif.) in accordance with the manufacturer's instructions, except that standards included a 0.5 M guanidine buffer.
In order to examine the effects of green tea's components on APP cleavage processing, for a first step, N2a neuroblastoma cells overproducing Aβ were treated with each of the aforementioned components at a wide range of doses. In addition, doses of (+)-catechin hydrate (CH) and gallic acid monohydrate (GAM) were included in the first step.

SMILES: O=C(O[C@@H]1Cc2c(O)cc(O)cc2O[C@@H]1c1cc(O)c(O)c(O)c1)c1cc(O)c(O)c(O)c1 [EGCG, (−)-epigallocatechin-3-gallate]
- α-secretase cleavage activity in cell lysate [1]: markedly elevated
- Aβ1-40 levels [2]: dose-dependent reductions
- Aβ1-42 levels [2]: dose-dependent reductions
- mature ADAM10, temporal analysis ([3]; 20 μM, as early as 30 min, continued to increase through 120 min): significant increases
- mature ADAM10 (~60 kDa isoform) protein level ([3]; various doses of EGCG, 8 h): dose-dependently increased
- ADAM10 maturation [4]: dose-dependently increased
- reduction of Aβ1-42 generation over control (PBS) ([5]; 20 μM, human APP695-transfected N2a cells, FIG. 1A): 60%
- ability to inhibit Aβ generation, purified EGCG versus same amounts EGCG present in GT mixtures ([5]; SweAPP N2a cells, equivalent doses, FIG. 1D): much greater
